Reference: patent US8592407B2, “Pyrrolo[2,1-c][1,4] benzodiazepine derivatives with dithiocarbamate side chains and process for the preparation thereof” (Council of Scientific & Industrial Research, priority 2008, dated 2013)

Key:
[1] = tested on: Lung A-549; experiment: Preliminary in vitro cytotoxicity on six cell lines
[2] = tested on: Ovary OVCAR-5; experiment: as above
[3] = tested on: Liver HEP-2; experiment: as above; settings: unit assumed
[4] = tested on: Neuroblastoma IMR-32; experiment: as above
[5] = tested on: Colon HCT-15; experiment: as above; settings: unit assumed
[6] = tested on: calf thymus DNA (CT-DNA); experiment: Thermal denaturation studies with duplex-form calf thymus DNA; assay type: binding; settings: [PBD]:[DNA] 1:5, CT-DNA 100 μM, ligand 20 μM, pH 7.00; for ΔTm after incubation at 37° C. for 0 h: 0 h at 37° C.; for ΔTm after incubation at 37° C. for 18 h: 18 h at 37° C.
Protocol: Compounds have been subjected to thermal denaturation studies with duplex-form calf thymus DNA (CT-DNA) using an modification of a reported procedure (Newman, M. S. Carcinog-compr. Surv. 1976, 1, 203; (b) Hecht, S. S.; Loy, M.; Hoffman, Carcinog-compr. Surv. 1976, 1, 325). Working solutions in aqueous buffer (10 mM NaH2PO4/Na2HPO4, 1 mM Na2EDTA, pH 7.00+0.01) containing CT-DNA (100 μm in phosphate) and the PBD (20 μm) have been prepared by addition of concentrated PBD solutions in DMSO to obtain a fixed [PBD]/[DNA] molar ratio of 1:5. The DNA−PBD solutions have been incubated at 37° C. for 0 and 18 h prior to analysis. Samples have been monitored at 260 nm using a Beckman DU-800 spectrophotometer fitted with high performance temperature controller, and heated at 1° C. min^−1
in the 40-110° C. range. DNA helix[…]coil transition temperatures (Tm) have been obtained from the maxima in the d(A260)/dT derivative plots. Drug-induced alterations in DNA melting behavior are given by: ΔTm=Tm(DNA+PBD)−Tm (DNA alone), where the Tm value for the PBD-free CT-DNA is 69.1±0.01.

[7] = tested on: Colon 502713; experiment: Preliminary in vitro cytotoxicity on six cell lines; settings: concentration (mg/ml) 1 × 10^−5 M
[8] = concentration (mg/ml) 1 × 10^−6 M
[9] = concentration (mg/ml) 1 × 10^−5 M

COc1cccc2c1C(=O)c1c(O)c3c(c(O)c1C2=O)C[C@@](O)(C(=O)CO)C[C@@H]3O[C@H]1C[C@H](N)[C@H](O)[C@H](C)O1 [Adriamycin, reference compound]
Preliminary in vitro cytotoxicity data [1, 8]: 61 | Preliminary in vitro cytotoxicity data [2, 8]: 30 | Preliminary in vitro cytotoxicity data [3, 8]: 31% | Preliminary in vitro cytotoxicity data [4, 8]: 80 | Preliminary in vitro cytotoxicity data [5, 8]: 58%

COc1cc2c(cc1OCCCCCN1CCN(C(=S)SCCC(C#N)(c3ccccc3)c3ccccc3)CC1)N=C[C@@H]1CCCN1C2=O [Compound 12d, 3-cyano-3,3-diphenylpropyl 4-(5-[(11aS)-7-(methyloxy)-5-oxo-2,3,5,11a-tetrahydro-1H-benzo[e]pyrrolo[1,2-a][1,4]diazepin-8-yl]oxypentyl)hexahydro-1-pyrazinecarbodithioate]
ΔTm after incubation at 37° C. for 0 h [6]: 2.0 °C | ΔTm after incubation at 37° C. for 18 h [6]: 2.1 °C

COc1cc2c(cc1OCCCSC(=S)N1CCN(CCCN3C(=O)c4cccc5cccc(c45)C3=O)CC1)N=C[C@@H]1CCCN1C2=O [Compound 13b, 3-[(11aS)-7-(methyloxy)-5-oxo-2,3,5,11a-tetrahydro-1H-benzo[e]pyrrolo[1,2-a][1,4]diazepin-8-yl]oxypropyl4-[3-(1,3-dioxo-2,3-dihydro-1H-benzo[de]isoquinolin-2-yl)propyl]hexahydro-1-pyrazinecarbodithioate]
ΔTm after incubation at 37° C. for 0 h [6]: 3.1 °C | ΔTm after incubation at 37° C. for 18 h [6]: 3.3 °C

COc1cc2c(cc1OCCCCSC(=S)N1CCN(CCCN3C(=O)c4cccc5cccc(c45)C3=O)CC1)N=C[C@@H]1CCCN1C2=O [Compound 13c, 4-[(11aS)-7-(methyloxy)-5-oxo-2,3,5,11a-tetrahydro-1H-benzo[e]pyrrolo[1,2-a][1,4]diazepin-8-yl]oxybutyl4-[3-(1,3-dioxo-2,3-dihydro-1H-benzo[de]isoquinolin-2-yl)propyl]hexahydro-1-pyrazinecarbodithioate]
ΔTm after incubation at 37° C. for 0 h [6]: 5.0 °C | ΔTm after incubation at 37° C. for 18 h [6]: 5.0 °C

COc1cc2c(cc1OCCCCCSC(=S)N1CCN(CCCN3C(=O)c4cccc5cccc(c45)C3=O)CC1)N=C[C@@H]1CCCN1C2=O [Compound 13d, 5-[(11aS)-7-(methyloxy)-5-oxo-2,3,5,11a-tetrahydro-1H-benzo[e]pyrrolo[1,2-a][1,4]diazepin-8-yl]oxypentyl4-[3-(1,3-dioxo-2,3-dihydro-1H-benzo[de]isoquinolin-2-yl)propyl]hexahydro-1-pyrazinecarbodithioate]
ΔTm after incubation at 37° C. for 0 h [6]: 4.0 °C | ΔTm after incubation at 37° C. for 18 h [6]: 4.6 °C

COc1cc2c(cc1OCCCCSC(=S)N1CCN(C)CC1)N=C[C@@H]1CCCN1C2=O [Compound 14c, 4-[(11aS)-7-(methyloxy)-5-oxo-2,3,5,11a-tetrahydro-1H-benzo[e]pyrrolo[1,2-a][1,4]diazepin-8-yl]oxybutyl4-methylhexahydro-1-pyrazinecarbodithioate]
Preliminary in vitro cytotoxicity data [7]: 75 | ΔTm after incubation at 37° C. for 0 h [6]: 2.1 °C | ΔTm after incubation at 37° C. for 18 h [6]: 2.2 °C | Preliminary in vitro cytotoxicity data [1, 9]: 50 | Preliminary in vitro cytotoxicity data [2, 9]: 36 | Preliminary in vitro cytotoxicity data [3, 9]: 66% | Preliminary in vitro cytotoxicity data [4, 9]: 86 | Preliminary in vitro cytotoxicity data [5, 9]: 82%

COc1cc2c(cc1OCCCCCSC(=S)N1CCN(C)CC1)N=C[C@@H]1CCCN1C2=O [Compound 14d, 5-[(11aS)-7-(methyloxy)-5-oxo-2,3,5,11a-tetrahydro-1H-benzo[e]pyrrolo[1,2-a][1,4]diazepin-8-yl]oxypentyl4-methylhexahydro-1-pyrazinecarbodithioate]
Preliminary in vitro cytotoxicity data [7]: 78 | ΔTm after incubation at 37° C. for 0 h [6]: 6.0 °C | ΔTm after incubation at 37° C. for 18 h [6]: 10.9 °C | Preliminary in vitro cytotoxicity data [1, 9]: 31 | Preliminary in vitro cytotoxicity data [2, 9]: 22 | Preliminary in vitro cytotoxicity data [3, 9]: 66% | Preliminary in vitro cytotoxicity data [4, 9]: 95 | Preliminary in vitro cytotoxicity data [5, 9]: 50%

COc1cc2c(cc1O)N=CC1CCCN1C2=O (stereo not shown) [DC-81, reference compound]
ΔTm after incubation at 37° C. for 0 h [6]: 0.3 °C | ΔTm after incubation at 37° C. for 18 h [6]: 0.7 °C
